Results: ChEMBL document CHEMBL1201862, “PubChem BioAssay data set” (2004)
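1) Cells in 96-well plates. 2) Compound, 48 h, 5 concentrations. 3) Linear interpolation between surrounding doses. 4) Unreached endpoint = highest concentration. Here, GI50 denotes the concentration required for 50% inhibition of growth.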 The source made the active and inactive calls. No stated cut-off is given here; in the data, active = GI50 up to about 1.1 µM and inactive = higher.

What was measured:
Experiment in all cases: DTP human tumour cell line panel, 48 h
COLO 205 = test system: COLO 205
T47D = test system: T47D
EKVX = test system: EKVX
HCC 2998 = test system: HCC 2998
UACC-62 = test system: UACC-62
HCT-15 = test system: HCT-15
MCF7 = test system: MCF7
IGROV-1 = test system: IGROV-1
HL-60 = test system: HL-60
CAKI-1 = test system: CAKI-1
K562 = test system: K562
SF-295 = test system: SF-295
MDA-N = test system: MDA-N
A549 = test system: A549
NCI-H23 = test system: NCI-H23
A498 = test system: A498
ACHN = test system: ACHN
SK-MEL-2 = test system: SK-MEL-2
SF-539 = test system: SF-539
MDA-MB-231 = test system: MDA-MB-231
TK-10 = test system: TK-10
MDA-MB-435 = test system: MDA-MB-435
HOP-62 = test system: HOP-62
HCT-116 = test system: HCT-116
OVCAR-5 = test system: OVCAR-5
OVCAR-8 = test system: OVCAR-8
CCRF-CEM = test system: CCRF-CEM
NCI-H522 = test system: NCI-H522
KM12 = test system: KM12
LOX IMVI = test system: LOX IMVI
M14 = test system: M14
SK-OV-3 = test system: SK-OV-3
SNB-75 = test system: SNB-75
PC-3 = test system: PC-3
Hs-578T = test system: Hs-578T
OVCAR-3 = test system: OVCAR-3
DU-145 = test system: DU-145
U-251 = test system: U-251
RXF 393 = test system: RXF 393
MOLT-4 = test system: MOLT-4
SF-268 = test system: SF-268
NCI-H226 = test system: NCI-H226
786-0 = test system: 786-0
SK-MEL-28 = test system: SK-MEL-28
UACC-257 = test system: UACC-257
NCI/ADR-RES = test system: NCI/ADR-RES
OVCAR-4 = test system: OVCAR-4
RPMI-8226 = test system: RPMI-8226
SW-620 = test system: SW-620
SN12C = test system: SN12C
HT-29 = test system: HT-29
SNB-19 = test system: SNB-19
BT-549 = test system: BT-549
NCI-H460 = test system: NCI-H460
Malme-3M = test system: Malme-3M

CCOC(=O)/C(C(=O)Nc1cccc(Cl)c1)=C(/N)N1CCCC1
GI50 (COLO 205): > 100 µM (inactive)
GI50 (T47D): > 100 µM (inactive)
GI50 (EKVX): > 100 µM (inactive)
GI50 (HCC 2998): > 100 µM (inactive)
GI50 (UACC-62): > 100 µM (inactive)
GI50 (HCT-15): > 100 µM
GI50 (MCF7): > 100 µM (inactive)
GI50 (IGROV-1): > 100 µM (inactive)
GI50 (HL-60): > 100 µM (inactive)
GI50 (CAKI-1): > 100 µM (inactive)
GI50 (K562): > 100 µM (inactive)
GI50 (SF-295): > 100 µM (inactive)
GI50 (MDA-N): > 100 µM (inactive)
GI50 (A549): > 100 µM (inactive)
GI50 (NCI-H23): > 100 µM (inactive)
GI50 (A498): > 100 µM (inactive)
GI50 (ACHN): > 100 µM (inactive)
GI50 (SK-MEL-2): > 100 µM (inactive)
GI50 (SF-539): > 100 µM (inactive)
GI50 (MDA-MB-231): > 100 µM (inactive)
GI50 (TK-10): > 100 µM (inactive)
GI50 (MDA-MB-435): > 100 µM (inactive)
GI50 (HOP-62): > 100 µM (inactive)
GI50 (HCT-116): > 100 µM (inactive)
GI50 (OVCAR-5): > 100 µM (inactive)
GI50 (OVCAR-8): > 100 µM (inactive)
GI50 (CCRF-CEM): > 100 µM (inactive)
GI50 (NCI-H522): > 100 µM (inactive)
GI50 (KM12): > 100 µM (inactive)
GI50 (LOX IMVI): > 100 µM (inactive)
GI50 (M14): > 100 µM (inactive)
GI50 (SK-OV-3): > 100 µM (inactive)
GI50 (SNB-75): > 100 µM (inactive)
GI50 (PC-3): > 100 µM (inactive)
GI50 (Hs-578T): > 100 µM (inactive)
GI50 (OVCAR-3): > 100 µM (inactive)
GI50 (DU-145): > 100 µM (inactive)
GI50 (U-251): > 100 µM (inactive)
GI50 (RXF 393): > 100 µM (inactive)
GI50 (MOLT-4): > 100 µM (inactive)
GI50 (SF-268): > 100 µM (inactive)
GI50 (NCI-H226): > 100 µM (inactive)
GI50 (786-0): > 100 µM (inactive)
GI50 (SK-MEL-28): > 100 µM (inactive)
GI50 (UACC-257): > 100 µM (inactive)
GI50 (NCI/ADR-RES): > 100 µM (inactive)
GI50 (OVCAR-4): > 100 µM (inactive)
GI50 (RPMI-8226): > 100 µM (inactive)
GI50 (SW-620): > 100 µM (inactive)
GI50 (SN12C): > 100 µM (inactive)
GI50 (HT-29): > 100 µM (inactive)
GI50 (SNB-19): > 100 µM (inactive)
GI50 (BT-549): > 100 µM (inactive)
GI50 (NCI-H460): > 100 µM (inactive)
GI50 (Malme-3M): > 100 µM (inactive)
